# Experimental data published in ChEMBL document CHEMBL5537121, “Synthesis and biological evaluation of structurally diverse 6-aryl-3-aroyl-indole analogues as inhibitors of tubulin polymerization” (Eur J Med Chem, 2024).
# The source made the active and inactive calls. The calls are words filed in the database; no cut-off is given here.
# Legend:
# [1] = Inhibition of bovine brain tubulin polymerization preincubated for 15 mins followed by GTP addition and measured after 20 mins by spectrophotometric analysis; set-up: species or system Bos taurus
# [2] = test system: MCF7; test: Cytotoxicity against human MCF7 cells assessed as cell growth inhibition incubated for 96 hrs by SRB assay; type: functional
# [3] = test system: MDA-MB-231; test: Cytotoxicity against human MDA-MB-231 cells assessed as cell growth inhibition incubated for 96 hrs by SRB assay; type: functional
# [4] = target: T1, Tubulin (Homo sapiens) (UniProt P68371+Q9H4B7+P0DPH7+P68366+Q13509+Q71U36+P04350+Q3ZCM7+P07437+P68363+Q9BQE3+Q6PEY2+Q13885+Q9BVA1+Q9BUF5); test: Inhibition of [3H]Colchicine binding to tubulin (unknown origin) at 5 uM incubated for 10 mins by scintillation counter relative to control; type: protein-complex assay
# [5] = Aqueous solubility of compound; type: physicochemical; settings: water
# [6] = test system: Mus musculus; test: Vascular disrupting activity in BALB/c mouse implanted with mouse orthotopic RENCA-luc assessed as reduction in bioluminescence imaging signal at 100 mg/kg administered as single dose and measured at 2.5 hrs by imaging analysis; type: functional, organism-based
# [7] = test system: Mus musculus; test: Vascular disrupting activity in BALB/c mouse implanted with mouse orthotopic RENCA-luc assessed as reduction in bioluminescence imaging signal at 150 mg/kg administered as single dose and measured at 2.5 hrs by imaging analysis relative to control; type: functional; set-up: scale not given: the % may be the effect or the level left
# [8] = test system: Mus musculus; test: Vascular disrupting activity in BALB/c mouse implanted with mouse orthotopic RENCA-luc assessed as hemorrhage at 150 mg/kg administered as single dose and measured after 2.5 hrs by H&E staining based analysis; type: functional, organism-based
# [9] = test system: Mus musculus; test: Vascular disrupting activity in BALB/c mouse implanted with mouse orthotopic RENCA-luc assessed as necrosis at 150 mg/kg administered as single dose and measured after 2.5 hrs by H&E staining based analysis; type: functional, organism-based
# [10] = target: T1, Tubulin (Homo sapiens); test: Induction of microtubule disruption in human MDA-MB-231 cells assessed as reduction in fluorescence at 100 nM measured at <1.5 mins by ViaFluor 488 live cell microtubule and Hoechst 33342 staining based fluorescence microscopic analysis
# [11] = target: T1, Tubulin (Homo sapiens); test: Induction of microtubule disruption in human MDA-MB-231 cells at 100 nM measured at 30 mins by ViaFluor 488 live cell microtubule and Hoechst 33342 staining based fluorescence microscopic analysis
# [12] = test system: MDA-MB-231; test: Induction of G2/M phase cell cycle arrest in human MDA-MB-231 cells at 200 to 500 nM incubated for 48 hrs by PI staining based flow cytometric analysis; type: functional; settings: dose 200-500 nM
# [13] = test system: MDA-MB-231; test: Inhibition of cell migration in human MDA-MB-231 cells at 50 nM incubated for 4 hrs by scratch assay; type: functional, cell-based
# [14] = test system: MDA-MB-231; test: Inhibition of cell migration in human MDA-MB-231 cells at 50 nM incubated for 6 hrs by scratch assay; type: functional, cell-based
# [15] = test system: MDA-MB-231; test: Inhibition of cell proliferation in human MDA-MB-231 cells at 50 nM incubated for 6 hrs by scratch assay; type: functional, cell-based
# [16] = test system: MDA-MB-231; test: Inhibition of cell migration in human MDA-MB-231 cells at 50 nM incubated for 72 hrs by scratch assay; type: functional, cell-based
# [17] = test system: MDA-MB-231; test: Induction of morphological changes in human MDA-MB-231 cells at 100 nM measured within 2 hrs by scratch assay; type: functional, cell-based
# [18] = test system: MDA-MB-231; test: Induction of morphological changes in human MDA-MB-231 cells assessed as cell rounding at 100 nM measured after 20 hrs by scratch assay relative to control; type: functional
# [19] = test system: MDA-MB-231; test: Inhibition of cell migration in human MDA-MB-231 cells at 100 nM incubated for 20 hrs by scratch assay; type: functional, cell-based
# [20] = test system: MDA-MB-231; test: Inhibition of cell proliferation in human MDA-MB-231 cells at 100 nM incubated for 20 hrs by scratch assay; type: functional, cell-based
# [21] = test system: MDA-MB-231; test: Inhibition of cell migration in human MDA-MB-231 cells at 100 nM incubated for 30 hrs by scratch assay; type: functional, cell-based
# [22] = test system: MDA-MB-231; test: Induction of morphological changes in human MDA-MB-231 cells at 200 nM measured within 1 hrs by scratch assay; type: functional, cell-based
# [23] = test system: MDA-MB-231; test: Induction of morphological changes in human MDA-MB-231 cells assessed as cell rounding at 200 nM measured after 14 hrs by scratch assay; type: functional
# [24] = test system: MDA-MB-231; test: Inhibition of cell migration in human MDA-MB-231 cells at 200 nM by scratch assay; type: functional, cell-based
# [25] = test system: MDA-MB-231; test: Inhibition of cell proliferation in human MDA-MB-231 cells at 200 nM by scratch assay; type: functional, cell-based
# [26] = target: T1, Tubulin (Homo sapiens); test: Inhibition of [3H]Colchicine binding to tubulin (unknown origin) at 0.5 uM incubated for 10 mins by scintillation counter relative to control; type: protein-complex assay
SMILES,IC50 [1] [µM],GI50 [2] [µM],GI50 [3] [µM],inhibition [4] [%],also measured
COc1cc(C(=O)c2c[nH]c3cc(-c4ccc(C(C)=O)s4)ccc23)cc(OC)c1OC,> 20,0.073,3.23,–,–
COc1cc(C(=O)c2c[nH]c3cc(-c4cc5ccccc5o4)ccc23)cc(OC)c1OC,> 20,0.95,2.07,–,–
COc1ccc(-c2ccc3c(C(=O)c4cc(OC)c(OC)c(OC)c4)c[nH]c3c2)cc1O,> 20,1.5,0.828,–,–
COc1cc(C(=O)c2c[nH]c3cc(-c4ccc(C)cc4)ccc23)cc(OC)c1OC,1.7,0.56,2.01,17,–
COc1ccc(/C=C\c2cc(OC)c(OC)c(OC)c2)cc1O [COMBRETASTATIN A4],–,0.009,0.0035,–,–
COc1cc(C(=O)c2c[nH]c3cc(-c4cccc(OP(=O)([O-])[O-])c4)ccc23)cc(OC)c1OC.[Na+].[Na+],9,4.2,0.694,–,solubility [5]: ≤ 2400 µg/mL; Activity [6]: Active; Activity [7]: >90%; Activity [8]: Active; Activity [9]: Active
COc1cc(C(=O)c2c[nH]c3cc(-c4cccc(O)c4)ccc23)cc(OC)c1OC,0.57,0.32,0.102,87,Activity [10]: Active; Activity [11]: Active; Activity [12]: Active; inhibition [13]: Active; inhibition [14]: inactive; inhibition [15]: inactive; inhibition [16]: inactive; Activity [17]: Active; Activity [18]: <90%; inhibition [19]: Active; inhibition [20]: Active; inhibition [21]: Active; Activity [22]: Active; Activity [23]: >90%; inhibition [24]: Active; inhibition [25]: Active
COc1cc(C(=O)c2c[nH]c3cc(-c4ccc(C(F)(F)F)cc4)ccc23)cc(OC)c1OC,> 20,1.4,4.06,–,–
COc1cc(C(=O)c2c[nH]c3cc(-c4ccccc4)ccc23)cc(OC)c1OC,0.28,0.073,0.156,86,–
COc1cccc(-c2ccc3c(C(=O)c4cc(OC)c(OC)c(OC)c4)c[nH]c3c2)c1,0.37,0.023,0.036,87,–
COc1cc(C(=O)c2c[nH]c3cc(-c4cccc(N)c4)ccc23)cc(OC)c1OC,0.42,0.065,0.025,91,inhibition [26]: 51%
CCc1ccc(-c2ccc3c(C(=O)c4cc(OC)c(O)c(OC)c4)c[nH]c3c2)cc1,> 20,> 5,> 5,–,–
COc1ccc(-c2ccc3c(C(=O)c4cc(OC)c(OC)c(OC)c4)c[nH]c3c2)cc1,2.5,0.098,1.86,9.1,–
CCc1ccc(-c2ccc3c(C(=O)c4cc(OC)c(OC)c(OC)c4)c[nH]c3c2)cc1,> 20,1.8,2.22,–,–
COc1cc(C(=O)c2c[nH]c3cc(-c4cccc([N+](=O)[O-])c4)ccc23)cc(OC)c1OC,0.65,0.028,0.11,41,–
